# Measured values from patent EP1780283A1, “Trophic conversion of obligate photographic algae through metabolic engineering” (MARTEK BIOSCIENCES CORPORATION, priority 2000, dated 2001).
# Where two headings read alike, the source gives them in different places.
# Assays:
# Nitzschia alba = assay: Antibiotic sensitivity of diatoms on solid media; format: cell-based
# Description: (§1) The diatoms Phaeodactylum tricornutum, Cylindrotheca fusiformis, Cyclotella cryptica and Nitzschia alba were extensively tested for sensitivity to a series of antibiotics for which resistance genes are available, and the lowest concentrations which completely abrogate growth were determined for each antibiotic (Table C). […] These include antibiotics such as G418, Hygromycin, Kanamycin and Spectinomycin, which are routinely utilized for selection of other eukaryotic organisms.
# (§2) Cells of each diatom species were plated on solid media at salinity equivalents of 25-100% I.O. media, with a gradient of antibiotic concentrations. After 2 weeks of illumination the growth of the cells was assessed and the concentration of antibiotic required for cell death was determined. (Table D). Table C. Effect of antibiotics on the growth of selected diatoms. Values represent the lowest concentration of the antibiotic per ml required for cell death or the highest concentration tested.
# [1] = tested on: Phaeodactylum tricornutum; assay: Antibiotic sensitivity of diatoms on solid media; format: cell-based; settings: for lowest concentration of antibiotic per ml required for cell death or the lowest concentration tested: reduced salinity
# Description: as §1
# (§3) The effective concentration range of the antibiotic in most cases was lowered by a factor of 10.
# as §2
# (§4) Table D. Effect of antibiotics on the growth of selected diatoms in media with reduced salinity. The relative percentage of salinity verses normal seawater of the medium is given in parentheses. Antibiotic levels are given as the lowest concentration of antibiotic per ml required for cell death or the lowest concentration tested.
# Cylindrotheca fusiformis = assay: Antibiotic sensitivity of diatoms on solid media; format: cell-based; settings: for lowest concentration of antibiotic per ml required for cell death or the lowest concentration tested: reduced salinity
# Description: as §1, §3, §2, §4
# Cyclotella cryptica = assay: Antibiotic sensitivity of diatoms on solid media; format: cell-based; settings: for lowest concentration of antibiotic per ml required for cell death or the lowest concentration tested: reduced salinity, 10% of normal seawater
# Description: as §1, §3, §2, §4
# [2] = tested on: human Glut1 glucose transporter (Glut1, from human erythrocytes), expressed in P. tricornutum transformants Glut-13 and Glut-17; assay: Glucose uptake kinetics (D-14C-glucose) of glut1 containing P. tricornutum transformants; format: cell-based, Phaeodactylum tricornutum; settings: cell line Glut-13; 5x10^-4 of Cytochalasin B (unit not given)
# [3] = N. alba, solid media, 100% I.O. media, 2 weeks of illumination
# [4] = P. tricornutum, 25% of normal seawater
# [5] = P. tricornutum, 50% of normal seawater
# [6] = P. tricornutum, solid media, 100% I.O. media, 2 weeks of illumination
# [7] = C. fusiformis, 25% of normal seawater
# [8] = C. fusiformis, 50% of normal seawater
# [9] = C. fusiformis, solid media, 100% I.O. media, 2 weeks of illumination
# [10] = C. cryptica, solid media, 100% I.O. media, 2 weeks of illumination
compound,measurement,setting,value
Phleomycin,lowest concentration of the antibiotic per ml required for cell death or the highest concentration tested,Nitzschia alba; [3],> 50 mg mg per ml
same,lowest concentration of antibiotic per ml required for cell death or the lowest concentration tested,[1]; [4],< 5 mg (25%) mg per ml
same,lowest concentration of antibiotic per ml required for cell death or the lowest concentration tested,[1]; [5],< 5 mg (50%) mg per ml
same,lowest concentration of the antibiotic per ml required for cell death or the highest concentration tested,[1]; [6],5 mg mg per ml
same,lowest concentration of antibiotic per ml required for cell death or the lowest concentration tested,Cylindrotheca fusiformis; [7],< 5 mg (25%) mg per ml
same,lowest concentration of antibiotic per ml required for cell death or the lowest concentration tested,Cylindrotheca fusiformis; [8],25 mg (50%) mg per ml
same,lowest concentration of the antibiotic per ml required for cell death or the highest concentration tested,Cylindrotheca fusiformis; [9],25 mg mg per ml
same,lowest concentration of antibiotic per ml required for cell death or the lowest concentration tested,Cyclotella cryptica; C. cryptica,< 5 mg (10%) mg per ml
same,lowest concentration of the antibiotic per ml required for cell death or the highest concentration tested,Cyclotella cryptica; [10],25 mg mg per ml
Neomycin,lowest concentration of the antibiotic per ml required for cell death or the highest concentration tested,Nitzschia alba; [3],> 1 mg mg per ml
same,lowest concentration of the antibiotic per ml required for cell death or the highest concentration tested,[1]; [6],> 1 mg mg per ml
same,lowest concentration of the antibiotic per ml required for cell death or the highest concentration tested,Cylindrotheca fusiformis; [9],> 1 mg mg per ml
same,lowest concentration of the antibiotic per ml required for cell death or the highest concentration tested,Cyclotella cryptica; [10],> 1 mg mg per ml
Cc1c(N)nc([C@H](CC(N)=O)NC[C@H](N)C(N)=O)nc1C(=O)N[C@H](C(=O)N[C@H](C)[C@@H](O)[C@H](C)C(=O)N[C@H](C(=O)NCCC1=N[C@@H](c2nc(C(=O)NCCCCN=C(N)N)cs2)CS1)[C@@H](C)O)[C@@H](O[C@@H]1O[C@@H](CO)[C@@H](O)[C@H](O)[C@@H]1O[C@H]1O[C@H](CO)[C@@H](O)[C@H](OC(N)=O)[C@@H]1O)c1cnc[nH]1 [Zeocin],lowest concentration of the antibiotic per ml required for cell death or the highest concentration tested,Nitzschia alba; [3],> 250 mg mg per ml
same,lowest concentration of antibiotic per ml required for cell death or the lowest concentration tested,[1]; [5],25 mg (50%) mg per ml
same,lowest concentration of the antibiotic per ml required for cell death or the highest concentration tested,[1]; [6],50 mg mg per ml
same,lowest concentration of antibiotic per ml required for cell death or the lowest concentration tested,Cylindrotheca fusiformis; [7],100 mg (25%) mg per ml
same,lowest concentration of antibiotic per ml required for cell death or the lowest concentration tested,Cylindrotheca fusiformis; [8],250 mg (50%) mg per ml
same,lowest concentration of the antibiotic per ml required for cell death or the highest concentration tested,Cylindrotheca fusiformis; [9],> 250 mg mg per ml
same,lowest concentration of antibiotic per ml required for cell death or the lowest concentration tested,Cyclotella cryptica; C. cryptica,< 5 mg (10%) mg per ml
same,lowest concentration of the antibiotic per ml required for cell death or the highest concentration tested,Cyclotella cryptica; [10],250 mg mg per ml
CN[C@@H]1[C@@H](O)[C@@H](O[C@@H]2[C@@H](O)[C@H](O[C@H]3O[C@H]([C@@H](C)O)[C@@H](O)[C@H](O)[C@H]3N)[C@@H](N)C[C@H]2N)OC[C@]1(C)O [G418],lowest concentration of the antibiotic per ml required for cell death or the highest concentration tested,Nitzschia alba; [3],> 500 mg mg per ml
same,lowest concentration of the antibiotic per ml required for cell death or the highest concentration tested,[1]; [6],> 1 mg mg per ml
same,lowest concentration of the antibiotic per ml required for cell death or the highest concentration tested,Cylindrotheca fusiformis; [9],> 1 mg mg per ml
same,lowest concentration of the antibiotic per ml required for cell death or the highest concentration tested,Cyclotella cryptica; [10],250 mg mg per ml
C=C1C(C)C2C(Cc3ccccc3)NC(=O)C23OC(=O)C=CC(O)CCCC(C)CC=CC3C1O (centres unmarked) [Cytochalasin B],glucose uptake in the presence of Cytochalasin B,[2],reduced to an undetectable level
Bleomycin,lowest concentration of the antibiotic per ml required for cell death or the highest concentration tested,[1]; [6],> 50 mg mg per ml
same,lowest concentration of the antibiotic per ml required for cell death or the highest concentration tested,Cylindrotheca fusiformis; [9],> 50 mg mg per ml
Nourseothricin,lowest concentration of the antibiotic per ml required for cell death or the highest concentration tested,Nitzschia alba; [3],> 250 mg mg per ml
same,lowest concentration of antibiotic per ml required for cell death or the lowest concentration tested,[1]; [4],10 mg (25%) mg per ml
same,lowest concentration of antibiotic per ml required for cell death or the lowest concentration tested,[1]; [5],25 mg (50%) mg per ml
same,lowest concentration of the antibiotic per ml required for cell death or the highest concentration tested,[1]; [6],250 mg mg per ml
same,lowest concentration of antibiotic per ml required for cell death or the lowest concentration tested,Cylindrotheca fusiformis; [7],< 10 mg (25%) mg per ml
same,lowest concentration of antibiotic per ml required for cell death or the lowest concentration tested,Cylindrotheca fusiformis; [8],50 mg (50%) mg per ml
same,lowest concentration of the antibiotic per ml required for cell death or the highest concentration tested,Cylindrotheca fusiformis; [9],> 250 mg mg per ml
same,lowest concentration of antibiotic per ml required for cell death or the lowest concentration tested,Cyclotella cryptica; C. cryptica,< 5 mg (10%) mg per ml
same,lowest concentration of the antibiotic per ml required for cell death or the highest concentration tested,Cyclotella cryptica; [10],>250 mg mg per ml
CN[C@@H]1C[C@H](N)[C@@H](O)[C@H](O[C@H]2O[C@H](CO)[C@H](O)[C@@H]3O[C@@]4(O[C@@H]23)O[C@H]([C@H](N)CO)[C@H](O)[C@H](O)[C@H]4O)[C@H]1O [Hygromycin],lowest concentration of the antibiotic per ml required for cell death or the highest concentration tested,Nitzschia alba,> 500 mg
same,lowest concentration of the antibiotic per ml required for cell death or the highest concentration tested,[1],> 1 mg
same,lowest concentration of the antibiotic per ml required for cell death or the highest concentration tested,Cylindrotheca fusiformis,500 mg
same,lowest concentration of the antibiotic per ml required for cell death or the highest concentration tested,Cyclotella cryptica,> 500 mg
